Data reported in patent US11873295B2, “Allosteric chromenone inhibitors of phosphoinositide 3-kinase (PI3K) for the treatment of disease” (Petra Pharma Corporation, priority 2021, dated 2024).

Experiments:
[1] = target: T1, human full length PIK3KA Wild-type (p110α/p85α complex) (Homo sapiens, UniProt P42336); assay: PI3K-alpha kinase (PIK3CA) biochemical activity, wild-type, ADP-Glo; conditions: PI3K-α (PIK3CA) biochemical, Soy PI lipid substrate
T1 construct: Recombinant, catalytically active human full length PIK3KA Wild-type and H1047R mutant were purchased as 1:1 complex; 6xHis (N); purchased EMD Millipore Sigma 14-602M
How it was run: (§1)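 Full-length His-p110α/p85α complex, wild-type or H1047R, 1–5 nM, preincubated with compound 1 h at 27 °C in HEPES pH 7.4, 25 mM MgCl2, 0.01% Triton X-100, 1% DMSO. Reaction with 20 μM ATP and 50 μM PIP2diC8 or soy PI at 27 °C to ~10% ATP conversion; ADP-Glo luminescence. IC50 from 10-point four-parameter logistic fit.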

[2] = target: T2, human full length PIK3KA H1047R mutant (p110α/p85α complex) (Homo sapiens, UniProt P42336, H1047R); assay: PI3K-alpha kinase (PIK3CA) biochemical activity, H1047R mutant, ADP-Glo; conditions: PI3K-α (PIK3CA) biochemical, H1047R mutant, Soy PI lipid substrate
T2 construct: Recombinant, catalytically active human full length PIK3KA Wild-type and H1047R mutant were purchased as 1:1 complex; 6xHis (N); purchased EMD Millipore Sigma 14-792M
How it was run: as §1

[3] = test system: PI3K-α (PIK3CA) in MDA-MB-453 cells; assay: PI3K-alpha kinase (PIK3CA) activity in vitro cell based assay, MDA-MB-453 cells, AlphaLisa SureFire; conditions: Homo sapiens, MDA-MB-453, 3 h, 0% FBS, 3 hours treatment, relative IC50
How it was run: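 MDA-MB-453 cells in serum-free MEM with 1 μg/mL insulin treated 3 h with 10-point 1:3 compound dilutions, 0.3% DMSO. Lysates read by AlphaLisa SureFire; percent inhibition relative to DMSO (max) and 1 μM GDC-0032 (min), duplicate means fitted to 4-parameter logistic for relative IC50.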

T2 sequence (P42336 whole entry H1047R): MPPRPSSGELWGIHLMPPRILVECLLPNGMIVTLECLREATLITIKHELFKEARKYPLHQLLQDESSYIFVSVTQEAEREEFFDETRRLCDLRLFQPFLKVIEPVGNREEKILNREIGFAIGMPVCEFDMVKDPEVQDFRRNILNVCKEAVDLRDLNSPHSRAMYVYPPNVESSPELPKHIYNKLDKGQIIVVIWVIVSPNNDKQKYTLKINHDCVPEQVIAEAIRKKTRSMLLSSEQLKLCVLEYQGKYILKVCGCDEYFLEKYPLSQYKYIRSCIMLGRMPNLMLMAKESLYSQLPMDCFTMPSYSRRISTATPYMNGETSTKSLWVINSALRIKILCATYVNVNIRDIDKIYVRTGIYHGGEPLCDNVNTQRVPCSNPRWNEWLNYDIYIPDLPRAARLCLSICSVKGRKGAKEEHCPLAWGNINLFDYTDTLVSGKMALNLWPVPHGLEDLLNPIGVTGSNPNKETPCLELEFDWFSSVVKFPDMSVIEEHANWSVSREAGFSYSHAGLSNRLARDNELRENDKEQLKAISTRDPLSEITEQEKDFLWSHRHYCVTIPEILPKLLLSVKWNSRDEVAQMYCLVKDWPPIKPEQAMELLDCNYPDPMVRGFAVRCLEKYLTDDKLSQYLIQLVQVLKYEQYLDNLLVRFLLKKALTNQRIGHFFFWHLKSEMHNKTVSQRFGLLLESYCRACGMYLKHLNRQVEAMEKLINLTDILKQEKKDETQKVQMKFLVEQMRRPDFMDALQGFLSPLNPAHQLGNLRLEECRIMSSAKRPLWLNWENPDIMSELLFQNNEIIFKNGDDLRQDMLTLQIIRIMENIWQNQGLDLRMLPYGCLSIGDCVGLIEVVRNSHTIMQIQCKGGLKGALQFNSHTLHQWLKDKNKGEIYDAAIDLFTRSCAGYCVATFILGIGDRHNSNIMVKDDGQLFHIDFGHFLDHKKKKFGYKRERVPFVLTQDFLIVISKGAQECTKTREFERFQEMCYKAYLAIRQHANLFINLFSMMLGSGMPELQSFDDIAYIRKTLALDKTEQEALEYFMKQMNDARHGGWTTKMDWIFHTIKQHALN
T2 sequence (P27986 whole entry partner): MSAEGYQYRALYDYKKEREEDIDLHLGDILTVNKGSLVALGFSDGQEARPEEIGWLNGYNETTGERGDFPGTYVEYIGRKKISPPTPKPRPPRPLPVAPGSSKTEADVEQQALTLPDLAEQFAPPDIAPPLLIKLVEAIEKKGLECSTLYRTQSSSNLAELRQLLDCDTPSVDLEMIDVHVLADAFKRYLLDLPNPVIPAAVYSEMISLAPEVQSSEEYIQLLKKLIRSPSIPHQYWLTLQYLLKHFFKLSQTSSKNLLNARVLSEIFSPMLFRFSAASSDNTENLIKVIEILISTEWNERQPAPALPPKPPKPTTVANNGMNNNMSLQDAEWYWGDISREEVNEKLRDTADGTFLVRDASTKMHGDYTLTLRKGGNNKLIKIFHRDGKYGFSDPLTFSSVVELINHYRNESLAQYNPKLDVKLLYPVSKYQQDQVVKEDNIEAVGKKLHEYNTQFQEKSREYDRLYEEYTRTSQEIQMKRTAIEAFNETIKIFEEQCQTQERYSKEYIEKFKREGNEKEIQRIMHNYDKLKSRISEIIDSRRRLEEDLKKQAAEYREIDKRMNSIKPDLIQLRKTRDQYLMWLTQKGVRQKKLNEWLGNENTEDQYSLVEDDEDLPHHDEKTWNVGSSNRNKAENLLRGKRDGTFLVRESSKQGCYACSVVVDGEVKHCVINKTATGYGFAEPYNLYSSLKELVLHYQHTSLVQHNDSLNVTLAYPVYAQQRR

| IC50 [1] [nM] | IC50 [2] [nM] | IC50 [3] [nM] | SMILES |
| --- | --- | --- | --- |
| 1000 to 5000 | 500 to 1000 | 100 to 500 | Cc1cc([C@@H](C)Nc2ccc(C(F)(F)F)cc2C(=O)O)c2oc(-c3ccccc3)c(C)c(=O)c2c1 [Example 37, 2-[[(1R)-1-(3,6-Dimethyl-4-oxo-2-phenyl-chromen-8-yl)ethyl]amino]-5-(trifluoromethyl)benzoic acid] |
| < 500 | < 500 | < 50 | Cc1cc([C@@H](C)Nc2ccc(F)c(F)c2C(=O)O)c2oc(-c3ccccc3)c(C)c(=O)c2c1 [Example 38, 6-[[(1R)-1-(3,6-Dimethyl-4-oxo-2-phenyl-chromen-8-yl)ethyl]amino]-2,3-difluoro-benzoic acid] |
| 1000 to 5000 | < 500 | < 50 | Cc1cc([C@@H](C)Nc2ccc(C)nc2C(=O)O)c2oc(-c3ccccc3)c(C)c(=O)c2c1 [Example 39, 3-[[(1R)-1-(3,6-Dimethyl-4-oxo-2-phenyl-chromen-8-yl)ethyl]amino]-6-methyl-pyridine-2-carboxylic acid] |
| 5000 to 10000 | < 500 | 50 to 100 | Cc1cc([C@@H](C)Nc2ccc(C3CC3)nc2C(=O)O)c2oc(-c3ccccc3)c(C)c(=O)c2c1 [Example 40, 6-Cyclopropyl-3-[[(1R)-1-(3,6-dimethyl-4-oxo-2-phenyl-chromen-8-yl)ethyl]amino]-pyridine-2-carboxylic acid] |
| 1000 to 5000 | < 500 | < 50 | Cc1cc([C@@H](C)Nc2ccc(Cl)cc2C(=O)O)c2oc(-c3ccccc3)c(C)c(=O)c2c1 [Example 41, 5-Chloro-2-[[(1R)-1-(3,6-dimethyl-4-oxo-2-phenyl-chromen-8-yl)ethyl]amino]benzoic acid] |
| 500 to 1000 | < 500 | < 50 | Cc1cc([C@@H](C)Nc2ccc(Cl)c(F)c2C(=O)O)c2oc(-c3ccccc3)c(C)c(=O)c2c1 [Example 42, 3-Chloro-6-[[(1R)-1-(3,6-dimethyl-4-oxo-2-phenyl-chromen-8-yl)ethyl]amino]-2-fluoro-benzoic acid] |
| 1000 to 5000 | < 500 | 50 to 100 | Cc1cc([C@@H](C)Nc2ccc(C)c(F)c2C(=O)O)c2oc(-c3ccccc3)c(C)c(=O)c2c1 [Example 43, 6-[[(1R)-1-(3,6-Dimethyl-4-oxo-2-phenyl-chromen-8-yl)ethyl]amino]-2-fluoro-3-methyl-benzoic acid] |
| 1000 to 5000 | < 500 | < 50 | Cc1cc([C@@H](C)Nc2ccccc2C(=O)O)c2oc(-c3ccccc3F)c(C)c(=O)c2c1 [Example 44, 2-[[(1R)-1-[2-(2-Fluorophenyl)-3,6-dimethyl-4-oxo-chromen-8-yl]ethyl]amino]benzoic acid] |
| < 500 | < 500 | < 50 | Cc1cc([C@@H](C)Nc2ccc(F)cc2C(=O)O)c2oc(-c3ccccc3)c(C)c(=O)c2c1 [Example 58, 2-[[(1R)-1-(3,6-Dimethyl-4-oxo-2-phenyl-chromen-8-yl)ethyl]amino]-5-fluoro-benzoic acid] |
| 500 to 1000 | < 500 | < 50 | COc1cccc(-c2cc(=O)c3cc(C)cc([C@@H](C)Nc4ccccc4C(=O)O)c3o2)c1 [Example 60, 2-[[(1R)-1-[2-(3-Methoxyphenyl)-6-methyl-4-oxo-chromen-8-yl]ethyl]amino]benzoic acid 2,2,2-trifluoroacetic acid] |
| 1000 to 5000 | < 500 | < 50 | Cc1cc([C@@H](C)Nc2ccccc2C(=O)O)c2oc(-c3ccc(F)c(F)c3)cc(=O)c2c1 [Example 63, 2-[[(1R)-1-[2-(3,4-DifIuorophenyl)-6-methyl-4-oxo-chromen-8-yl]ethyl]amino]benzoic acid 2,2,2-trifluoroacetic acid] |
| 1000 to 5000 | < 500 | < 50 | COc1ccc(-c2cc(=O)c3cc(C)cc([C@@H](C)Nc4ccccc4C(=O)O)c3o2)cc1 [Example 66, 2-[[(1R)-1-[2-(4-Methoxyphenyl)-6-methyl-4-oxo-chromen-8-yl]ethyl]amino]benzoic acid 2,2,2-trifluoroacetic acid] |
| > 10000 | < 500 | 50 to 100 | COc1ccccc1-c1cc(=O)c2cc(C)cc([C@@H](C)Nc3ccccc3C(=O)O)c2o1 [Example 67, 2-[[(1R)-1-[2-(2-Methoxyphenyl)-6-methyl-4-oxo-chromen-8-yl]ethyl]amino]benzoic acid 2,2,2-trifluoroacetic acid] |
| 1000 to 5000 | < 500 | < 50 | Cc1cc([C@@H](C)Nc2ccccc2C(=O)O)c2oc(-c3cc(F)cc(F)c3)cc(=O)c2c1 [Example 68, 2-[[(1R)-1-[2-(3,5-Difluorophenyl)-6-methyl-4-oxo-chromen-8-yl]ethyl]amino]benzoic acid 2,2,2-trifluoroacetic acid] |
| 500 to 1000 | < 500 | < 50 | Cc1cc([C@@H](C)Nc2cccc(F)c2C(=O)O)c2oc(-c3ccccc3)c(C)c(=O)c2c1 [Example 69, 2-[[(1R)-1-(3,6-Dimethyl-4-oxo-2-phenyl-chromen-8-yl)ethyl]amino]-6-fluoro-benzoic acid] |
| 1000 to 5000 | < 500 | < 50 | Cc1cc([C@@H](C)Nc2ccccc2C(=O)O)c2oc(-c3ccccc3)c(C(F)(F)F)c(=O)c2c1 [Example 70, 2-[[(1R)-1-[6-Methyl-4-oxo-2-phenyl-3-(trifluoromethyl)-chromen-8-yl]ethyl]amino]benzoic acid 2,2,2-trifluoroacetic acid] |
| > 10000 | < 500 | < 50 | Cc1cc([C@@H](C)Nc2ccccc2C(=O)O)c2oc(-c3cccc(C(F)F)c3)c(C)c(=O)c2c1 [Example 73, 2-[[(1R)-1-[2-[3-(Difluoromethyl)phenyl]-3,6-dimethyl-4-oxo-chromen-8-yl]ethyl]amino]benzoic acid 2,2,2-trifluoroacetic acid] |
| 1000 to 5000 | < 500 | < 50 | Cc1cc([C@@H](C)Nc2ccccc2C(=O)O)c2oc(-c3ccc(F)cc3F)c(C)c(=O)c2c1 [Example 75, 2-[[(1R)-1-[2-(2,4-Difluorophenyl)-3,6-dimethyl-4-oxo-chromen-8-yl]ethyl]amino]benzoic acid] |
| 5000 to 10000 | < 500 | < 50 | Cc1cc([C@@H](C)Nc2cccc(Cl)c2C(=O)O)c2oc(-c3ccccc3)c(C)c(=O)c2c1 [Example 76, 2-Chloro-6-[[(1R)-1-(3,6-dimethyl-4-oxo-2-phenyl-chromen-8-yl)ethyl]amino]benzoic acid] |
| 1000 to 5000 | < 500 | < 50 | Cc1cc([C@@H](C)Nc2ccccc2C(=O)O)c2oc(-c3ccc(F)c(F)c3)c(C)c(=O)c2c1 [Example 78, 2-[[(1R)-1-[2-(3,4-Difluorophenyl)-3,6-dimethyl-4-oxo-chromen-8-yl]ethyl]amino]benzoic acid 2,2,2-trifluoroacetic acid] |
| 1000 to 5000 | < 500 | < 50 | C[C@@H](Nc1ccc(Cl)nc1C(=O)O)c1cc(C(F)(F)F)cc2c(=O)cc(-c3ccc(F)cc3F)oc12 [Example 81, 6-Chloro-3-[[(1R)-1-[2-(2,4-difluorophenyl)-4-oxo-6-(trifluoromethyl)-chromen-8-yl]ethyl]amino]pyridine-2-carboxylic acid] |
| 5000 to 10000 | < 500 | > 500 | Cc1c(-c2ccccc2)oc2c([C@@H](C)Nc3ccccc3C(=O)O)cc(F)cc2c1=O [Example 84, 2-[[(1R)-1-(6-Fluoro-3-methyl-4-oxo-2-phenyl-chromen-8-yl)ethyl]amino]benzoic acid 2,2,2-trifluoroacetic acid] |
| 1000 to 5000 | < 500 | < 50 | Cc1cc([C@@H](C)Nc2ccccc2C(=O)O)c2oc(-c3ccccc3)c(-c3cnoc3)c(=O)c2c1 [Example 85, 2-[[(1R)-1-(3-Isoxazol-4-yl-6-methyl-4-oxo-2-phenyl-chromen-8-yl)ethyl]amino]benzoic acid 2,2,2-trifluoroacetic acid] |
| 1000 to 5000 | < 500 | < 50 | C[C@@H](Nc1ccc(Cl)nc1C(=O)O)c1cc(C(F)(F)F)cc2c(=O)cc(-c3ccc(F)c(F)c3)oc12 [Example 88, 6-Chloro-3-[[(1R)-1-[2-(3,4-difluorophenyl)-4-oxo-6-(trifluoromethyl)-chromen-8-yl]ethyl]amino]pyridine-2-carboxylic acid] |
| 1000 to 5000 | < 500 | < 50 | Cc1c(-c2ccccc2)oc2c([C@@H](C)Nc3ccc(Cl)nc3C(=O)O)cc(C(F)(F)F)cc2c1=O [Example 91, 6-Chloro-3-[[(1R)-1-[3-methyl-4-oxo-2-phenyl-6-(trifluoromethyl)-chromen-8-yl]ethyl]amino]pyridine-2-carboxylic acid] |
